Assay results reported in patent US9567345B2, “Pharmaceutically active pyrazolo-triazine derivatives” (LEAD DISCOVERY CENTER GMBH, priority 2012, dated 2017).

Key:
Type in all cases: biochemical
CDK7/CycH/Mat1 = CDK7/CycH/Mat1 (Homo sapiens, UniProt P50613); assay: CDK7 Enzymatic Activity Assay (Lance Kinase Activity Assay, FRET); conditions: CDK7/CycH/Mat1, 25 μM ATP final; class ranges; read-out: CDK7: IC50 [nM] for CDK7 inhibition
Outline: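 TR-FRET (LANCE) kinase assay: CDK7/CycH/Mat1 phosphorylates Ulight-MBP substrate for 1 h at room temperature in pH 7.5 HEPES buffer; detection 1 h with Eu-labelled anti-phospho antibody plus EDTA.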

CDK9/Cyclin T1 = CDK9/Cyclin T1 (Homo sapiens, UniProt P50750); assay: CDK9 Enzymatic Activity Assay (Lance Kinase Activity Assay, FRET); conditions: Table 5B, class symbols per IC50 [nM] ranges of b581; read-out: CDK9: Selectivity of CDK7 inhibition over CDK9 inhibition
Outline: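 CDK9/cyclin T1 phosphorylation of a ULight-MBP peptide was run for 1 h at room temperature in pH 7.5 HEPES buffer with MgCl2, EGTA, DTT and Tween-20. It was followed by 1 h with Eu-anti-phospho-MBP antibody (4 nM) in EDTA detection buffer. TR-FRET loss gave IC50 from 8-point, 1:3 sigmoidal dose-response curves.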

CDK2/CycA = molecular target: T1, CDK2/CycA (Homo sapiens, UniProt P24941); assay: CDK2 Enzymatic Activity Assay (Lance Kinase Activity Assay, FRET); conditions: Table 5B, class symbols per IC50 [nM] ranges of b581; read-out: CDK2: Selectivity of CDK7 inhibition over CDK2 inhibition
T1 construct: purchased Proqinase
Outline: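 Compounds in an 8-step, 1:3 dilution series were incubated 1 h at room temperature with CDK2/CycA, ULight-MBP substrate and ATP in pH 7.5 HEPES buffer.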

CDK9/Cyclin T1, sequence (P50750 whole entry): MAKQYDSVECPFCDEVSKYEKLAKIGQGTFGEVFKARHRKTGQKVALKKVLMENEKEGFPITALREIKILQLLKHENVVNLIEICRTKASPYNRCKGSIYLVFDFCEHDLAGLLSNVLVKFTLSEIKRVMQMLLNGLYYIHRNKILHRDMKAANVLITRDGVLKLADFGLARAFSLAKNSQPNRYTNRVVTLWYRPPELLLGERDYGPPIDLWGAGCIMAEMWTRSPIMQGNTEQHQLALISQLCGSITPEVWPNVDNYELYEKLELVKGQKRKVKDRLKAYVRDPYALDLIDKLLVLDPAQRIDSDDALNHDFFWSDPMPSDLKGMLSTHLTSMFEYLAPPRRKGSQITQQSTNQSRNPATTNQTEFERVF
CDK9/Cyclin T1, sequence (O60563 whole entry partner): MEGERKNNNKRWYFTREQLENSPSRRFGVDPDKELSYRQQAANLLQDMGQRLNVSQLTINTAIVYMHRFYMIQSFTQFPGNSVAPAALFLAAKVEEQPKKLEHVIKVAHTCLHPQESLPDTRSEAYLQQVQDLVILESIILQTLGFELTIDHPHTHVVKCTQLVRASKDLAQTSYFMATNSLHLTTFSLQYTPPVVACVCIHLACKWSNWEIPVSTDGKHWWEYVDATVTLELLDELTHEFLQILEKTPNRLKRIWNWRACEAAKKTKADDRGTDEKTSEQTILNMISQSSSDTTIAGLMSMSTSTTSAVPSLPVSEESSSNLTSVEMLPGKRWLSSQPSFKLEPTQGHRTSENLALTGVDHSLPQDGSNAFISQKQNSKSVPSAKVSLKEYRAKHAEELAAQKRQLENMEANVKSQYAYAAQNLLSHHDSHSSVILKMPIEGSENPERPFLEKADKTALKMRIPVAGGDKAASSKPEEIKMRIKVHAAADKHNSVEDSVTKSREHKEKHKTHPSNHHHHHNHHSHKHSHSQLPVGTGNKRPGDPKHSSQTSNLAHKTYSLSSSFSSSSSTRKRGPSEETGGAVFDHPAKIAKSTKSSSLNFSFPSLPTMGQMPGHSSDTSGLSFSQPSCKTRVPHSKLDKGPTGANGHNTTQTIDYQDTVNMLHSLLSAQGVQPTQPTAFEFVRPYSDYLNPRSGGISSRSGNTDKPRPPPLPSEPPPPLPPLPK
CDK7/CycH/Mat1, sequence (P50613 whole entry): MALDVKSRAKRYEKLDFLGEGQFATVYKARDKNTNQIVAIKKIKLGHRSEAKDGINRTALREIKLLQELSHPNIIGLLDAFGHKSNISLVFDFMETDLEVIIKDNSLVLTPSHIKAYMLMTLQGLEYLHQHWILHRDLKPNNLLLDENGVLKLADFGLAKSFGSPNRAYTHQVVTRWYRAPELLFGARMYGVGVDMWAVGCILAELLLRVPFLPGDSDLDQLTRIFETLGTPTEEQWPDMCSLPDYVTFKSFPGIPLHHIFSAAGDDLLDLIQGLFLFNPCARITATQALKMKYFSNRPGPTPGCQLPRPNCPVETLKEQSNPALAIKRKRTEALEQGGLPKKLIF

Row | SMILES | IC50 (CDK7/CycH/Mat1) [nM] | IC50 (CDK9/Cyclin T1) [nM] | IC50 (CDK2/CycA) [nM]
1 | CC(C)c1cnn2c(NC(C)c3ccccc3-n3cccn3)nc(O[C@@H]3CCCNC3)nc12 (stereo partly drawn) [(VII-06), N-(1-(2-(1H-pyrazol-1-yl)phenyl)ethyl)-8-isopropyl-2-((R)-piperidin-3-yloxy)pyrazolo[1,5-a][1,3,5]triazin-4-amine] | < 5 | 50 to 500 | > 2500
2 | CC(C)c1cnn2c(NCc3cccc4ccccc34)nc(OC3CCN(C)CC3)nc12 [(VII-61), 8-isopropyl-2-((1-methylpiperidin-4-yl)oxy)-N-(naphthalen-1-ylmethyl)pyrazolo[1,5-a][1,3,5]triazin-4-amine] | 5 to 10 | 50 to 500 | 500 to 2500
3 | CC(C)c1cnn2c(NCc3ccccc3S(=O)(=O)N3CCCC3)nc(O[C@@H]3CCCNC3)nc12 [(VII-106), (R)-8-isopropyl-2-(piperidin-3-yloxy)-N-(2-(pyrrolidin-1-ylsulfonyl)benzyl)pyrazolo[1,5-a][1,3,5]triazin-4-amine] | < 5 | > 2500 | 50 to 500
4 | CC(C)c1cnn2c(NCc3ccccc3-n3cccn3)nc(N3CCCC(N)C3)nc12 (stereo not drawn) [(VIII-053), N-(2-(1H-pyrazol-1-yl)benzyl)-2-(3-aminopiperidin-1-yl)-8-isopropylpyrazolo[1,5-a][1,3,5]triazin-4-amine] | > 25 | > 2500 | > 2500
5 | CC(C)c1cnn2c(NCc3ccccc3NC(=O)NC3CCCCC3)nc(O[C@@H]3CCCNC3)nc12 [(VII-112), (R)-1-cyclohexyl-3-(2-(((8-isopropyl-2-(piperidin-3-yloxy)pyrazolo[1,5-a][1,3,5]triazin-4-yl)amino)methyl)phenyl)urea] | 5 to 10 | > 2500 | > 2500
6 | CNC1CCN(c2nc(NCc3ccccc3-n3cccn3)n3ncc(C(C)C)c3n2)CC1 [(VIII-25), N-(2-(1H-pyrazol-1-yl)benzyl)-8-isopropyl-2-(4-(methylamino)piperidin-1-yl)pyrazolo[1,5-a][1,3,5]triazin-4-amine] | < 5 | 500 to 2500 | 50 to 500
7 | CC(C)c1cnn2c(NCc3cccc(Cl)c3Cl)nc(O[C@@H]3CCCNC3)nc12 [(VII-103), (R)-N-(2,3-dichlorobenzyl)-8-isopropyl-2-(piperidin-3-yloxy)pyrazolo[1,5-a][1,3,5]triazin-4-amine] | 10 to 25 | 50 to 500 | 50 to 500
8 | CC(C)c1cnn2c(NCc3ccccc3-n3cccn3)nc(C(=O)N3CCNCC3)nc12 [(XII-9), (4-((2-(1H-pyrazol-1-yl)benzyl)amino)-8-isopropylpyrazolo[1,5-a][1,3,5]triazin-2-yl)(piperazin-1-yl)methanone] | > 25 | > 2500 | > 2500
9 | CC(C)c1cnn2c(NCc3ccccc3-n3cccn3)nc(N3CC4CCNC4C3)nc12 (stereo not drawn) [(VIII-050), N-(2-(1H-pyrazol-1-yl)benzyl)-2-(hexahydropyrrolo[3,4-b]pyrrol-5(1H)-yl)-8-isopropylpyrazolo[1,5-a][1,3,5]triazin-4-amine] | 10 to 25 | > 2500 | > 2500
10 | CC(C)c1cnn2c(NCc3ccccc3SC3CCCC3)nc(O[C@@H]3CCCNC3)nc12 [(VII-119), (R)-N-(2-(cyclopentylthio)benzyl)-8-isopropyl-2-(piperidin-3-yloxy)pyrazolo[1,5-a][1,3,5]triazin-4-amine] | > 25 | > 2500 | 500 to 2500
11 | COCCN1CCN(Cc2nc(NCc3ccccc3-n3cccn3)n3ncc(C(C)C)c3n2)CC1 [(XXX-9), N-(2-(1H-pyrazol-1-yl)benzyl)-8-isopropyl-2-((4-(2-methoxyethyl)piperazin-1-yl)methyl)pyrazolo[1,5-a][1,3,5]triazin-4-amine] | > 25 | > 2500 | > 2500
12 | CC(C)c1cnn2c(NCc3ccccc3-n3cccn3)nc(SC3CCNCC3)nc12 [(X-9), N-(2-(1H-pyrazol-1-yl)benzyl)-8-isopropyl-2-(piperidin-4-ylthio)pyrazolo[1,5-a][1,3,5]triazin-4-amine] | 10 to 25 | > 2500 | > 2500
13 | CC(C)c1cnn2c(NCc3ccccc3OC3CCC3)nc(O[C@@H]3CCCNC3)nc12 [(VII-097), (R)-N-(2-cyclobutoxybenzyl)-8-isopropyl-2-(piperidin-3-yloxy)pyrazolo[1,5-a][1,3,5]triazin-4-amine] | > 25 | > 2500 | > 2500
14 | CC(C)c1cnn2c(NCc3ccccc3F)nc(OC3CCN(C)CC3)nc12 [(VII-56), N-(2-fluorobenzyl)-8-isopropyl-2-((1-methylpiperidin-4-yl)oxy)pyrazolo[1,5-a][1,3,5]triazin-4-amine] | 5 to 10 | 50 to 500 | 500 to 2500
15 | CC(C)c1cnn2c(NCc3ccccc3-n3cccn3)nc(C(=O)N(C)CCN3CCOCC3)nc12 [(XII-06), 4-((2-(1H-pyrazol-1-yl)benzyl)amino)-8-isopropyl-N-methyl-N-(2-morpholinoethyl)pyrazolo[1,5-a][1,3,5]triazine-2-carboxamide] | > 25 | > 2500 | 500 to 2500
16 | CC(C)c1cnn2c(NCc3ccccc3-n3cccn3)nc(S[C@@H]3CCCNC3)nc12 [(X-8), (R)-N-(2-(1H-pyrazol-1-yl)benzyl)-8-isopropyl-2-(piperidin-3-ylthio)pyrazolo[1,5-a][1,3,5]triazin-4-amine] | < 5 | > 2500 | 50 to 500
17 | CC(C)c1cnn2c(NCc3ccccc3-n3ccnc3)nc(O[C@@H]3CCNC3)nc12 [(VII-27), (R)-N-(2-(1H-imidazol-1-yl)benzyl)-8-isopropyl-2-(pyrrolidin-3-yloxy)pyrazolo[1,5-a][1,3,5]triazin-4-amine] | < 5 | 50 to 500 | 50 to 500
18 | CC(C)c1cnn2c(NCc3cccc4c3OCCCO4)nc(O[C@@H]3CCCNC3)nc12 [(VII-116), (R)-N-((3,4-dihydro-2H-benzo[b][1,4]dioxepin-6-yl)methyl)-8-isopropyl-2-(piperidin-3-yloxy)pyrazolo[1,5-a][1,3,5]triazin-4-amine] | 10 to 25 | 500 to 2500 | 50 to 500
19 | CC(C)c1cnn2c(NCc3ccccc3NC(=O)NCc3ccccc3)nc(O[C@@H]3CCCNC3)nc12 [(VII-113), (R)-1-benzyl-3-(2-(((8-isopropyl-2-(piperidin-3-yloxy)pyrazolo[1,5-a][1,3,5]triazin-4-yl)amino)methyl)phenyl)urea] | 10 to 25 | > 2500 | > 2500
20 | CC(C)c1cnn2c(NCc3ccccc3-n3cccn3)nc(CN3CC(N4CCCC4=O)C3)nc12 [(XXX-8), 1-(1-((4-((2-(1H-pyrazol-1-yl)benzyl)amino)-8-isopropylpyrazolo[1,5-a][1,3,5]triazin-2-yl)methyl)azetidin-3-yl)pyrrolidin-2-one] | > 25 | > 2500 | > 2500
21 | CCCNC(=O)Nc1ccccc1CNc1nc(O[C@@H]2CCCNC2)nc2c(C(C)C)cnn12 [(VII-110), (R)-1-(2-(((8-isopropyl-2-(piperidin-3-yloxy)pyrazolo[1,5-a][1,3,5]triazin-4-yl)amino)methyl)phenyl)-3-propylurea] | < 5 | > 2500 | > 2500
22 | CC(C)c1cnn2c(NCc3ccccc3S(C)(=O)=O)nc(O[C@@H]3CCCNC3)nc12 [(VII-154), (R)-8-isopropyl-N-(2-(methylsulfonyl)benzyl)-2-(piperidin-3-yloxy)pyrazolo[1,5-a][1,3,5]triazin-4-amine] | < 5 | > 2500 | 50 to 500
23 | CC(C)c1cnn2c(NCc3ccccc3-n3cccn3)nc(CNCCN3CCCC3)nc12 [(XXX-4), N-(2-(1H-pyrazol-1-yl)benzyl)-8-isopropyl-2-(((2-(pyrrolidin-1-yl)ethyl)amino)methyl)pyrazolo[1,5-a][1,3,5]triazin-4-amine] | > 25 | > 2500 | > 2500
24 | CC(C)c1cnn2c(NCc3ccccc3C3=CCCCC3)nc(O[C@@H]3CCCNC3)nc12 [(VII-117), (R)-8-isopropyl-2-(piperidin-3-yloxy)-N-((2′,3′,4′,5′-tetrahydro-[1,1′-biphenyl]-2-yl)methyl)pyrazolo[1,5-a][1,3,5]triazin-4-amine] | > 25 | > 2500 | > 2500
25 | CC(C)c1cnn2c(NCc3ccccc3-n3cccn3)nc([S+]([O-])C3CCNCC3)nc12 (stereo not drawn) [(X-1), N-(2-(1H-pyrazol-1-yl)benzyl)-8-isopropyl-2-(piperidin-4-ylsulfinyl)pyrazolo[1,5-a][1,3,5]triazin-4-amine] | < 5 | 500 to 2500 | 50 to 500
26 | CC(C)c1cnn2c(NCc3ccccc3-n3cccn3)nc(OC3C=CCNC3)nc12 (stereo not drawn) [(VII-120), N-(2-(1H-pyrazol-1-yl)benzyl)-8-isopropyl-2-((1,2,3,6-tetrahydropyridin-3-yl)oxy)pyrazolo[1,5-a][1,3,5]triazin-4-amine] | 5 to 10 | > 2500 | 50 to 500
